Assay results: patent US20250169501A1, “Metal(loid)-Based Compositions and Uses Thereof Against Bacterial Biofilms” (CCREST Laboratories Inc., priority 2022, published 2025)
Where two headings read alike, the source gives them in different places.

Assays:
P. aeruginosa biofilm [1] = assay type: cell-based, Pseudomonas aeruginosa
P. aeruginosa biofilm [2] = assay type: cell-based, Pseudomonas aeruginosa; remark: listed apart in the source
P. aeruginosa PAO1 = assay: In vitro resistance acquisition, serial passage; assay type: cell-based, Pseudomonas aeruginosa; conditions: SWF, sublethal (1/8 MIC) concentration, 7 days
Experimental: Serial passage of growth as a screen for resistant P. aeruginosa PAO1 was carried out for 7 days in SWF supplemented with sublethal (1/8 dilution from the MIC) concentrations of Ag, Te, and Ag—Te mixture. […] Strains of P. aeruginosa PAO1 were grown in sublethal (1/8th MIC) concentrations of Ag, Te or a mixture of the two antimicrobials, for 7 days.
The impact of the MBAs on antibiotic resistance was also tested. Serial passage of growth as a screen for resistant P. aeruginosa PAO1 was performed for 7 days in SWF supplemented with sublethal (1/8 dilution from the MIC) concentrations of Ag, Te, and Ag—Te mixture.

P. aeruginosa = assay type: cell-based, Pseudomonas aeruginosa; conditions: SWF; for recovery of bacteria in the same fresh media after treatment: read after 2, 4 and 24 hours; for dilution in which bacteria recovered when agent used alone: vs combination
Text: For the MBC and recovery potency of bacteria. […] The last well that had no bacterial growth was defined as the MBC.

39 clinical isolates = assay: Antibiotic resistance of the clinical isolates; assay type: cell-based; conditions: out of 39 clinical isolates

Row | Compound | Eradication of P. aeruginosa biofilm (MBEC) (P. aeruginosa biofilm [1]; LB, in 24 h) [mM] | Eradication of P. aeruginosa biofilm (MBEC) (P. aeruginosa biofilm [1]; MHB, in 24 h) [mM] | Eradication of P. aeruginosa biofilm (MBEC) (P. aeruginosa biofilm [1]; SWF, in 24 h) [mM] | Inhibition of P. aeruginosa biofilm (MBIC) (P. aeruginosa biofilm [2]; LB, in 48 h) [mM] | Inhibition of P. aeruginosa biofilm (MBIC) (P. aeruginosa biofilm [2]; MHB, in 48 h) [mM] | Inhibition of P. aeruginosa biofilm (MBIC) (P. aeruginosa biofilm [2]; SWF, in 48 h) [mM] | occurrence of resistance during serial passage (P. aeruginosa PAO1) | recovery of bacteria in the same fresh media after treatment (P. aeruginosa) | dilution in which bacteria recovered when agent used alone (P. aeruginosa) | clinical isolates resistant to the antibiotic (39 clinical isolates) | Eradication of P. aeruginosa biofilm (MBEC) (P. aeruginosa biofilm [1]) [mM] | Inhibition of P. aeruginosa biofilm (MBIC) (P. aeruginosa biofilm [2]) [mM]
1 | O=[Se](O)O [Se, sodium selenite] | >50 | >50 | >50 | >50 | >50 | >50 | – | – | – | – | – | –
2 | O=[N+]([O-])[O-].[Ag+] [Ag, silver nitrate] | 0.065 | 0.03 | 0.5 | 0.125 | 0.03 | 0.25 | after two days | couldn't inhibit the recovery of bacteria | three-fold higher dilution | – | – | –
3 | gentamicin | – | – | – | – | – | – | – | – | – | 15 (38%) isolates (%) | – | –
4 | [Au+3].[Cl-].[Cl-].[Cl-].[Cl-] [Au, tetrachloroaurate] | 0.25 | 0.25 | 1 | 0.5 | 0.25 | 0.25 | – | – | – | – | – | –
5 | O=S(=O)([O-])[O-].[Cu+2] [Cu, copper sulfate] | – | – | – | – | – | – | – | – | – | – | 6.25 | 8
6 | O=[Te]([O-])[O-].[K+].[K+] [Te, potassium tellurite] | 0.5 | 0.5 | 0.5 | 0.5 | 0.5 | 0.5 | after five days | couldn't inhibit the recovery of bacteria | two-fold higher dilution | – | – | –
7 | O=[N+]([O-])[O-].O=[N+]([O-])[O-].O=[N+]([O-])[O-].[Ga+3] [Ga, gallium nitrate] | 3 | 3 | 12.5 | 12.5 | 12.5 | 25 | – | – | – | – | – | –
